Laboratory results published in PMC11882969 (Nature Communications, 2025).
Where two headings read alike, the source gives them in different places.

Key:
[1] = target: T1, CB1 (rCB1) (Rattus norvegicus, UniProt P20272); assay: Radioligand competition binding, [3H]-CP-55,940, rat brain membranes; conditions: rCB1
[2] = target: T1, CB1 (rCB1); assay: Single-point radioligand displacement screen; assay type: binding; conditions: 10 µM, 1 µM or 300 nM by cell colour (not visible)
[3] = target: hCB1 (Homo sapiens, UniProt P21554); assay: bioSensAll ebBRET signaling profiling, hCB1; assay type: cell-based; set-up: host or cells: HEK293SL cells, transient PEI transfection; conditions: for Barr2+GRK2 hCB1 response: Barr2+GRK2 biosensor; for Gi1 hCB1 / GoB hCB1: single replicate values, FigS6a; for EC50: hCB1 GoB; for Emax: normalized to CP-55,940
Sequence of hCB1 (P21554 whole entry): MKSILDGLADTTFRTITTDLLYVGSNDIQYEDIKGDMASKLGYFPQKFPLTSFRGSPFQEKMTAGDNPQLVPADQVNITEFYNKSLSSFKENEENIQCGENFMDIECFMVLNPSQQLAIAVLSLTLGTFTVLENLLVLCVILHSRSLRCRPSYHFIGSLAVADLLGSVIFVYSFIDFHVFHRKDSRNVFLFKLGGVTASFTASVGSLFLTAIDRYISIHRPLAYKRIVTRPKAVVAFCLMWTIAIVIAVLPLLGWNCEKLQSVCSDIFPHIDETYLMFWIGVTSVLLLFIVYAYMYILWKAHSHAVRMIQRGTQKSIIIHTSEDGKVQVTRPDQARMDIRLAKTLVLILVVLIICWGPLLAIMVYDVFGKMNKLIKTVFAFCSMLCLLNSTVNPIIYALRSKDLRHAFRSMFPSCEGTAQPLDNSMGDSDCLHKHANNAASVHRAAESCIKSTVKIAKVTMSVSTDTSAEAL

T1 sequence (P20272 whole entry): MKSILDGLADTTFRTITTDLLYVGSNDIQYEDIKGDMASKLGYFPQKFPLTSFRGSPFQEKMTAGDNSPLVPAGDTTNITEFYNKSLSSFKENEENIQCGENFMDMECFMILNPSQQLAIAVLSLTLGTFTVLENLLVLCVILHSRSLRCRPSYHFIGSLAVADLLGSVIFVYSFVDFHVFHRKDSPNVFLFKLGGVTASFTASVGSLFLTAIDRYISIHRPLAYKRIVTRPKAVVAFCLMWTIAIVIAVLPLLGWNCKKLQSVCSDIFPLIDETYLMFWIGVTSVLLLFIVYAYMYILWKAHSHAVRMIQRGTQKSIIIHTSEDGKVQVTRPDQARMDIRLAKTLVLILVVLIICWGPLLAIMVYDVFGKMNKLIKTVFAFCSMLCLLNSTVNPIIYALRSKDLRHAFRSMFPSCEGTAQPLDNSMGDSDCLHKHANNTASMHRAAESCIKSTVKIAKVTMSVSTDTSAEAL

SMILES: Cn1nc(-c2nnc(C(C)(C)Oc3ccc(C(F)(F)F)cc3)o2)c2ccccc2c1=O [‘2153]
- pKi [95% CI] [1]: 6.79 [6.5 – 7.0]
- % 1H-CP-55,940 displacement (mean) from single point screen [2]: 89.82%
- Barr2+GRK2 hCB1 response ([3]; Log [Compound] (M) -4.22186): 52.3115
- Barr2+GRK2 hCB1 response ([3]; Log [Compound] (M) -4.63927): 1.898
- Barr2+GRK2 hCB1 response ([3]; Log [Compound] (M) -5.05788): -31.9237
- Barr2+GRK2 hCB1 response ([3]; Log [Compound] (M) -5.47381): -49.7918
- Barr2+GRK2 hCB1 response ([3]; Log [Compound] (M) -5.89285): -32.2428
- Barr2+GRK2 hCB1 response ([3]; Log [Compound] (M) -6.31878): -30.3284
- Barr2+GRK2 hCB1 response ([3]; Log [Compound] (M) -6.72585): -23.6278
- Barr2+GRK2 hCB1 response ([3]; Log [Compound] (M) -7.14267): -46.282
- Barr2+GRK2 hCB1 response ([3]; Log [Compound] (M) -7.55284): -43.4104
- Barr2+GRK2 hCB1 response ([3]; Log [Compound] (M) -8): -60.3212
- Barr2+GRK2 hCB1 response ([3]; Log [Compound] (M) -8.22186): 12.7465
- Barr2+GRK2 hCB1 response ([3]; Log [Compound] (M) -8.39794): -37.9861
- Barr2+GRK2 hCB1 response ([3]; Log [Compound] (M) -8.68787): -0.01644
- Barr2+GRK2 hCB1 response ([3]; Log [Compound] (M) -9.15521): -27.1376
- Barr2+GRK2 hCB1 response ([3]; Log [Compound] (M) -9.61989): -19.4799
- Barr2+GRK2 hCB1 response ([3]; Log [Compound] (M) -10.0969): -46.6011
- Barr2+GRK2 hCB1 response ([3]; Log [Compound] (M) -10.5529): -22.3515
- Barr2+GRK2 hCB1 response ([3]; Log [Compound] (M) -11.0177): -18.8417
- Barr2+GRK2 hCB1 response ([3]; Log [Compound] (M) -11.4949): -32.5619
- Barr2+GRK2 hCB1 response ([3]; Log [Compound] (M) -11.9208): -20.4371
- Barr2+GRK2 hCB1 response ([3]; Log [Compound] (M) -12.3979): -30.0093
- Barr2+GRK2 hCB1 response ([3]; Log [Compound] (M) -12.8861): -33.2
- Barr2+GRK2 hCB1 response ([3]; Log [Compound] (M) -13.3979): 30.2955
- Gi1 hCB1 ([3]; Log [Compound] (M) -4.22186): 75.7197
- GoB hCB1 ([3]; Log [Compound] (M) -4.22186): 87.0618
- Gi1 hCB1 ([3]; Log [Compound] (M) -4.63927): 62.7492
- GoB hCB1 ([3]; Log [Compound] (M) -4.63927): 68.3981
- Gi1 hCB1 ([3]; Log [Compound] (M) -5.05788): 53.1046
- GoB hCB1 ([3]; Log [Compound] (M) -5.05788): 59.4743
- Gi1 hCB1 ([3]; Log [Compound] (M) -5.47381): 46.6906
- GoB hCB1 ([3]; Log [Compound] (M) -5.47381): 51.6096
- Gi1 hCB1 ([3]; Log [Compound] (M) -5.89285): 39.3106
- GoB hCB1 ([3]; Log [Compound] (M) -5.89285): 42.3906
- Gi1 hCB1 ([3]; Log [Compound] (M) -6.31878): 39.2789
- GoB hCB1 ([3]; Log [Compound] (M) -6.31878): 35.0814
- Gi1 hCB1 ([3]; Log [Compound] (M) -6.72585): 25.5166
- GoB hCB1 ([3]; Log [Compound] (M) -6.72585): 29.2133
- Gi1 hCB1 ([3]; Log [Compound] (M) -7.14267): 15.7294
- GoB hCB1 ([3]; Log [Compound] (M) -7.14267): 18.1713
- Gi1 hCB1 ([3]; Log [Compound] (M) -7.55284): 6.592
- GoB hCB1 ([3]; Log [Compound] (M) -7.55284): 8.536
- Gi1 hCB1 ([3]; Log [Compound] (M) -8): 0.6052
- GoB hCB1 ([3]; Log [Compound] (M) -8): 0.9487
- Gi1 hCB1 ([3]; Log [Compound] (M) -8.22186): 7.605
- GoB hCB1 ([3]; Log [Compound] (M) -8.22186): 6.383
- Gi1 hCB1 ([3]; Log [Compound] (M) -8.39794): -1.77
- GoB hCB1 ([3]; Log [Compound] (M) -8.39794): -8.426
- Gi1 hCB1 ([3]; Log [Compound] (M) -8.68787): -5.112
- GoB hCB1 ([3]; Log [Compound] (M) -8.68787): -5.249
- Gi1 hCB1 ([3]; Log [Compound] (M) -9.15521): -4.764
- GoB hCB1 ([3]; Log [Compound] (M) -9.15521): -4.208
- Gi1 hCB1 ([3]; Log [Compound] (M) -9.61989): -4.051
- GoB hCB1 ([3]; Log [Compound] (M) -9.61989): -5.197
- Gi1 hCB1 ([3]; Log [Compound] (M) -10.0969): -5.445
- GoB hCB1 ([3]; Log [Compound] (M) -10.0969): -5.371
- Gi1 hCB1 ([3]; Log [Compound] (M) -10.5529): -5.27
- GoB hCB1 ([3]; Log [Compound] (M) -10.5529): -5.926
- Gi1 hCB1 ([3]; Log [Compound] (M) -11.0177): -5.413
- GoB hCB1 ([3]; Log [Compound] (M) -11.0177): -5.284
- Gi1 hCB1 ([3]; Log [Compound] (M) -11.4949): -5.698
- GoB hCB1 ([3]; Log [Compound] (M) -11.4949): -6.413
- Gi1 hCB1 ([3]; Log [Compound] (M) -11.9208): -5.872
- GoB hCB1 ([3]; Log [Compound] (M) -11.9208): -5.041
- Gi1 hCB1 ([3]; Log [Compound] (M) -12.3979): -4.415
- GoB hCB1 ([3]; Log [Compound] (M) -12.3979): -7.09
- Gi1 hCB1 ([3]; Log [Compound] (M) -12.8861): -6.854
- GoB hCB1 ([3]; Log [Compound] (M) -12.8861): -5.666
- Gi1 hCB1 ([3]; Log [Compound] (M) -13): -4.779
- GoB hCB1 ([3]; Log [Compound] (M) -13): -5.6139
- Gi1 hCB1 ([3]; Log [Compound] (M) cell empty): -2.087
- GoB hCB1 ([3]; Log [Compound] (M) cell empty): -1.829
- pEC50 [95% CI] ([3]; hCB1 Gi1): 6.0 [5.2 – 6.4]
- EC50 [3]: 2 µM
- EC50 ([3]; read-out: EC50 [95% CI]): 2.06 µM
- Emax ([3]; read-out: Emax [95% CI], hCB1 Gi1): 89%
- Emax ([3]; read-out: Emax [95% CI], hCB1 GoB): 109%

SMILES: COC(=O)C(NC(=O)c1cc(C)n(-c2cccc(C#N)c2)n1)c1ccsc1 (centres unmarked) [‘31604]
- pKi [95% CI] [1]: 6.1 [6.0 – 6.2]
- % 1H-CP-55,940 displacement (mean) from single point screen [2]: 41.46%
